From ChEMBL document CHEMBL5357036, “Latest developments in coumarin-based anticancer agents: mechanism of action and structure-activity relationship studies” (RSC Med Chem, 2024)
≈ marks a conversion by molar mass, not a printed value. Each block holds one compound with its values, some of them ahead of it.

Experiments:
K562 = test: Antiproliferative activity against human K562 cells assessed as cell growth inhibition; type: functional, cell-based
HL-60 = test: Antiproliferative activity against human HL-60 cells assessed as cell growth inhibition measured after 72 hrs by trypan blue staining based assay; type: functional; conditions: HL-60, 72 h
MDA-MB-231 [1] = test: Antiproliferative activity against human MDA-MB-231 cells assessed as cell growth inhibition by SRB assay; type: functional, cell-based
KE-37 = test: Anticancer activity against human KE-37 cells assessed as reduction in cell viability; type: functional, cell-based
A549 (Homo sapiens) = test: Antiproliferative activity against human A549 cells assessed as cell growth inhibition incubated for 48 hrs by MTT assay; conditions: A549, 48 h
PANC-1 = test: Antiproliferative activity against human PANC-1 cells assessed as cell growth inhibition incubated for 48 hrs by MTT assay; type: functional, cell-based; conditions: PANC-1, 48 h
[2] = Oral bioavailability in Sprague-Dawley rat at 10 mg/kg measured up to 24 hrs by LC-MS/MS analysis; type: ADME, organism-based; conditions: in vivo
HepG2 [3] = test: Antiproliferative activity against human HepG2 cells assessed as cell growth inhibition incubated for 48 hrs by MTT assay; type: functional, cell-based
SGC-7901 = test: Antiproliferative activity against human SGC-7901 cells assessed as cell growth inhibition; type: functional, cell-based
HeLa [4] = test: Anticancer activity against human HeLa cells assessed as inhibition of cell growth by SRB assay; type: functional, cell-based
HCT-116 = test: Antiproliferative activity against human HCT-116 cells assessed as reduction in cell viability incubated for 72 hrs by MTT assay; type: functional, cell-based; conditions: HCT-116, 72 h
[5] = Antiproliferative activity against human H357 cells assessed as reduction in cell proliferation incubated for 72 hrs by CellTiter-Glo reagent based assay; type: functional; conditions: H357, 72 h
MDA-MB-231 [6] = test: Antiproliferative activity against human MDA-MB-231 cells assessed as reduction in cell proliferation incubated for 72 hrs by CellTiter-Glo reagent based assay; type: functional; conditions: MDA-MB-231, 72 h
MHCC97 = test: Antiproliferative activity against human MHCC97 cells assessed as inhibition of cell growth measured after 3 days by CellTiter-Glo assay; type: functional, cell-based; conditions: MHCC97, 72 h
Hep 3B2 = test: Antiproliferative activity against human Hep3B cells assessed as reduction in cell viability incubated for 48 hrs by MTT assay; type: functional, cell-based
Bel-7402 = test: Antiproliferative activity against human Bel-7402 cells assessed as reduction in cell viability incubated for 48 hrs by MTT assay; type: functional, cell-based; conditions: Bel-7402, 48 h
SMMC-7721 = test: Antiproliferative activity against human SMMC-7721 cells assessed as reduction in cell viability incubated for 48 hrs by MTT assay; type: functional, cell-based; conditions: SMMC-7721, 48 h
A-375 = test: Anticancer activity against human A-375 cells assessed as inhibition of cell growth incubated for 48 hrs by MTT assay; type: functional, cell-based; conditions: A-375, 48 h
MCF7 [7] = test: Anticancer activity against human MCF7 cells assessed as inhibition of cell growth incubated for 48 hrs by MTT assay; type: functional, cell-based; conditions: MCF7, 48 h
A549 [8] = test: Anticancer activity against human A549 cells assessed as inhibition of cell growth incubated for 48 hrs by MTT assay; type: functional, cell-based; conditions: A549, 48 h
MCF7 [9] = test: Cytotoxicity against human MCF7 cells assessed as reduction in cell growth incubated for 5 days by MTT assay; type: functional, cell-based; conditions: MCF7, 120 h
[10] = Cytotoxicity against human HEK cells assessed as reduction in cell growth incubated for 5 days by MTT assay; type: functional, cell-based; conditions: HEK293, 120 h
4T1 = test: Cytotoxicity against mouse 4T1 cells assessed as inhibition of cell proliferation incubated for 72 hrs by MTT assay; type: functional, cell-based; conditions: 4T1, 72 h
MCF7 [11] = test: Cytotoxicity against human MCF7 cells assessed as inhibition of cell proliferation incubated for 72 hrs by MTT assay; type: functional, cell-based; conditions: MCF7, 72 h
HepG2 [12] = test: Cytotoxicity against human HepG2 cells assessed as reduction in cell viability measured after 24 hrs by MTT assay; type: functional, cell-based; conditions: HepG2, 24 h
SK-OV-3 [13] = test: Antiproliferative activity against human SK-OV-3 cells assessed as reduction in cell growth by SRB assay; type: functional, cell-based
MCF7 [14] = test: Anticancer activity against human MCF7 cells after 48 hrs by SRB assay; type: functional, cell-based; conditions: MCF7, 48 h
MCF7 [15] = test: Anticancer activity against human MCF7 cells assessed as inhibition of cell proliferation measured after 48 hrs by MTT assay; type: functional, cell-based; conditions: MCF7, 48 h
SK-OV-3 [16] = test: Anticancer activity against human SK-OV-3 cells assessed as reduction in cell viability incubated for 24 hrs by MTT assay; type: functional, cell-based; conditions: SK-OV-3, 24 h
MCF7-DOX [17] = test: Antiproliferative activity against human MCF7-DOX cells assessed as reduction in cell viability incubated for 72 hrs by MTT assay; type: functional, cell-based
HeLa [18] = test: Growth inhibition of human HeLa cells incubated for 48 hrs by MTT assay; type: functional
MCF7 [19] = test: Anticancer activity against human MCF7 cells assessed as inhibition of cell proliferation measured after 72 hrs by MTT assay; type: functional, cell-based; conditions: MCF7, 72 h
NCI-H460 = test: Cytotoxicity against human NCI-H460 cells assessed as cell growth inhibition incubated for 24 hrs by MTT assay; type: functional, cell-based; conditions: NCI-H460, 24 h
MGC-803 = test: Cytotoxicity against human MGC-803 cells assessed as cell growth inhibition incubated for 24 hrs by MTT assay; type: functional, cell-based; conditions: MGC-803, 24 h
A549 [20] = test: Cytotoxicity against human A549 cells assessed as cell growth inhibition incubated for 24 hrs by MTT assay; type: functional, cell-based; conditions: A549, 24 h
Ehrlich = test: Cytotoxicity against mouse EAC cell assessed as reduction in cell viability by MTT assay; type: functional, cell-based
[21] = Cytotoxicity against mouse DLA cell assessed as reduction in cell viability by trypan blue assay; type: functional, cell-based
[22] = Cytotoxicity against mouse DLA cell assessed as reduction in cell viability by LDH leak assay; type: functional, cell-based
[23] = Cytotoxicity against rat H4-II-E cells assessed as reduction in cell viability measured after 24 hrs by MTT assay; type: functional, cell-based; conditions: H4IIE
MCF7 [24] = test: Anticancer activity against human MCF7 cells assessed as reduction in cell viability by SRB assay; type: functional, cell-based
HepG2 [25] = test: Anticancer activity against human HepG2 cells assessed as reduction in cell viability by SRB assay; type: functional, cell-based
A549 [26] = test: Anticancer activity against human A549 cells assessed as reduction in cell viability by SRB assay; type: functional, cell-based
MCF7-DOX [27] = test: Antiproliferative activity against human MCF7-DOX cells assessed as reduction in cell viability by SRB assay; type: functional, cell-based
DU-145 = test: Anticancer activity against human DU-145 cells assessed as reduction in cell viability by SRB assay; type: functional, cell-based
MDA-MB-231 [28] = test: Cytotoxicity against human MDA-MB-231 cells assessed as inhibition of cell growth incubated for 72 hrs by MTT assay; type: functional
MT4 = test: Cytotoxicity against human MT4 cells assessed as inhibition of cell growth incubated for 72 hrs by MTT assay; type: functional
MCF7 [29] = test: Cytotoxicity against human MCF7 cells assessed as inhibition of cell growth incubated for 72 hrs by MTT assay; type: functional
HepG2 [30] = test: Cytotoxicity against human HepG2 cells assessed as growth inhibition measured after 48 hrs by MTT assay; type: functional, cell-based; conditions: HepG2, 48 h
SNB-75 = test: Antiproliferative activity against human SNB-75 cells assessed as cell growth inhibition at 10 uM by SRB assay relative to control; type: functional
HepG2 [31] = test: Antiproliferative activity against human HepG2 cells assessed as reduction in cell viability incubated for 48 hrs by MTT assay; type: functional, cell-based; conditions: HepG2, 48 h
HepG2 [32] = test: Induction of apoptosis in human HepG2 cells assessed as increase in apoptotic cells at 10 uM by Annexin V-FITC staining based flow cytometry (reference value: 13.76 %); type: functional
MCF7 [33] = test: Antiproliferative activity against human MCF7 cells assessed as reduction in cell viability incubated for 48 hrs by cell titer-glo assay; type: functional, cell-based; conditions: MCF7, 48 h

SMILES: Cc1cc(=O)oc2cc(OCCOCCN3C(=O)C(=O)c4cc(F)ccc43)ccc12
- IC50 (HeLa [4]): 11.5 µM

SMILES: O=c1oc2ccccc2c(O)c1C(c1cccc(Oc2ccccc2)c1)c1c(O)c2ccccc2oc1=O
- IC50 (MHCC97): 7 µM
- IC50 (Hep 3B2): 9 µM
- IC50 (Bel-7402): 8 µM
- IC50 (SMMC-7721): 6 µM

SMILES: CC(c1cc2ccccc2oc1=O)(c1c[nH]c2ccc(Br)cc12)c1c[nH]c2ccc(Br)cc12
- IC50 (MCF7 [9]): 21.2 µM
- IC50 [10]: > 50 µM

SMILES: O=C(Cc1cc(=O)oc2cc(O)ccc12)NCCCCCCCCCNc1c2c(nc3ccccc13)CCCC2
- IC50 (4T1): 5.7 µM
- IC50 (MCF7 [11]): 6 µM

SMILES: O=C(Nc1ccc(/C=C/C(=O)c2cc3ccccc3oc2=O)cc1)Nc1ccc([N+](=O)[O-])cc1
- IC50 (HepG2 [12]): 2.33 µM

SMILES: COc1ccc2nc(SCc3cc(=O)oc4ccc(C(C)(C)C)cc34)[nH]c2c1
- IC50 (MCF7 [14]): 0.18 µM

SMILES: Cc1cc(=O)oc2cc(OCCOCCOCCOCN3C(=O)/C(=N/O)c4cc(F)ccc43)ccc12
- IC50 (MCF7 [15]): 11.9 µM
- IC50 (SK-OV-3 [16]): 23.8 µM
- IC50 (MCF7-DOX [17]): 18.9 µM

SMILES: O=c1oc2ccccc2cc1NCc1ccc(Br)cc1
- IC50 (NCI-H460): 9.25 µM
- IC50 (MGC-803): 10.2 µM
- IC50 (A549 [20]): 8.75 µM

SMILES: COc1ccc(-c2csc(NC(=O)c3cc4ccc(OC)cc4oc3=O)n2)cc1
- IC50 (Ehrlich): 15.3 µM
- IC50 [21]: 15.6 µM
- IC50 [22]: 14.2 µM

SMILES: O=C(Nc1ccc(/C=C/C(=O)c2cc3ccccc3oc2=O)cc1)Nc1ccc(C(F)(F)F)cc1
- IC50 [23]: 1.62 µM

SMILES: Cc1cc(=O)oc2cc(OCCOCCN3C(=O)/C(=N/O)c4cc(F)ccc43)ccc12
- IC50 (MCF7 [24]): 11.3 µM
- IC50 (HepG2 [25]): 10.3 µM
- IC50 (A549 [26]): 10.9 µM
- IC50 (MCF7-DOX [27]): 14.5 µM
- IC50 (DU-145): 20.8 µM

SMILES: CC(=O)c1cc2cc(Nc3c(C)cc(C)c(-c4cc5ccccc5nc4F)c3C)c(=O)oc2cc1O
- GI50 (MDA-MB-231 [28]): 11.8 µM
- GI50 (MT4): 12.6 µM
- GI50 (MCF7 [29]): 10.5 µM

SMILES: CCCCOc1ccc2cc(C(=O)NNC(=O)c3c(C)oc4nc(N(CCC)CCC)n(-c5ccc(C)cc5)c(=O)c34)c(=O)oc2c1
- IC50 (HepG2 [30]): 4.87 µM

SMILES: COc1cc2c3c(c(=O)oc2cc1OS(=O)(=O)c1ccc(C(F)(F)F)cc1)CCCCC3
- inhibition at 10 µM (SNB-75): 91.9%

Second part, led by results:

- IC50 (K562): 7.2 µM
- IC50 (HL-60): 2.9 µM
- IC50 (MDA-MB-231 [1]): 9.1 µM
SMILES: O=C(N/N=C/c1c(Cl)c2ccccc2oc1=O)c1ccccc1
- IC50 (KE-37): 5.3 µM

- IC50 (A549 (Homo sapiens)): 4.63 µM
- IC50 (PANC-1): 7.02 µM
- bioavailability [2]: 49.4%
- IC50 (HepG2 [3]): 4.75 µM
- IC50 (SGC-7901): 6.39 µM
SMILES: COc1cc(Cl)ccc1S(=O)(=O)Nc1ccc2oc(=O)ccc2c1

- IC50 (HCT-116): 3.6 µM
SMILES: CCN(CC)c1ccc2cc(C(=O)/C=C/c3ccc(OC)c(O)c3)c(=O)oc2c1

- IC50 (MDA-MB-231 [6]): 7.78 µM
SMILES: C/C(=N\c1ccc(S(N)(=O)=O)cc1)c1cc2ccccc2oc1=O
- IC50 [5]: 8.68 µM

- IC50 (A-375): 9.02 µM
- IC50 (MCF7 [7]): 5.17 µM
- IC50 (A549 [8]): 4.29 µM
SMILES: Cc1ccc(NCc2cc(=O)oc3ccc4ccccc4c23)cc1

- IC50 (SK-OV-3 [13]): 18.6 µM
SMILES: Cc1cc(=O)oc2cc(OCCOCCN3C(=O)/C(=N/O)c4ccccc43)ccc12

- GI50 (HeLa [18]): 23.4 mg/L (≈ 67.5 µM)
SMILES: O=c1cc(-c2nccc3c2[nH]c2ccccc23)c2cc(Cl)ccc2o1

- IC50 (MCF7 [19]): 15.4 µM
SMILES: O=C(O)COc1ccc2ccccc2c1/C=C/C(=O)c1cc2c(ccc3ccccc32)oc1=O

- IC50 (HepG2 [31]): 3.48 µM
SMILES: C/C(=N\Nc1nc(-c2ccccc2)cs1)c1ccc(NS(=O)(=O)c2ccc3oc(=O)ccc3c2)cc1
- Activity (HepG2 [32]): 1.75%

- IC50 (MCF7 [33]): 2.56 µM
SMILES: CCN(C)S(=O)(=O)c1ccc(/C(C)=N/NC(=O)c2cc3ccccc3oc2=O)cc1
